Each molecule was assayed against T1, h5-HT4b (Homo sapiens, UniProt Q13639) (assay: 5HT4 antagonism: [3H]GR113808 binding to membranes of h5-HT4b-HEK 293 clone 9 cells). Conditions: displacement of [3H]GR113808 0.1 nM, h5-HT4b-HEK 293 membranes, 30 min at 25° C.; read-out: pIC50 (5HT4 antagonistic data) (converted).
T1 construct: expressed in transfected cells; host or cells: HEK 293 (clone 9), membrane preparation
T1 sequence (Q13639 whole entry): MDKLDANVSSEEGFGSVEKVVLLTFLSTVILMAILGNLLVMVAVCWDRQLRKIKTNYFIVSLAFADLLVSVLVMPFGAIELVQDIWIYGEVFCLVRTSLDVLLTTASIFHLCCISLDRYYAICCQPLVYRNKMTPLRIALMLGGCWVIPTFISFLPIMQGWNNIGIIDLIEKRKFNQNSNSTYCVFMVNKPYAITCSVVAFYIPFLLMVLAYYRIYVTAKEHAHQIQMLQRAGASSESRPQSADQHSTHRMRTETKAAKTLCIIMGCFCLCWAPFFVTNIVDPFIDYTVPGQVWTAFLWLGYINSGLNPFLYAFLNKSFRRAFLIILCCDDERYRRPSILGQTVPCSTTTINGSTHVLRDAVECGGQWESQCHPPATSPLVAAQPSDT
Protocol: h5-HT4b-HEK 293 clone 9 cells were cultured in 150 mm Petri dishes and washed twice with cold PBS. The cells were then scraped from the plates and suspended in 50 mM Tris-HCl buffer, pH 7.4 and harvested by centrifugation at 23,500 rpm for 10 minutes. The pellet was resuspended in 5 mM Tris-HCl, pH 7.4 and homogenized with an Ultra Turrax homogenizer. The membranes were collected by centrifugation at 30,000 rpm for 20 min, resuspended in 50 mM Tris-HCl pH 7.4 and stored at −80° C. For the experiment, assay mixtures (0.5 ml) contained 50 μl of the tritiated ligand (5-HT4 antagonist [^3H]GR113808 0.1 nM) and 0.4 ml membrane preparation (15 μg protein/ml). 50 μl of 10% DMSO was added for total binding. 50 μl of 1 μM of (+)-trans-(1-butyl-3-hydroxy-4-piperidinyl)methyl 8-amino-7-chloro-2,3-dihydro-1,4-benzodioxin-5-carboxylate (a proprietary 5HT4 agonist of Janssen Pharmaceutica) was added for determination of non-specific binding.
The [^3H]GR113808 assay buffer was 50 mM HEPES-NaOH, pH 7.4. The mixtures were incubated for 30 min at 25° C. The incubation was terminated by filtration over a Unifilter 96 GF/B presoaked in 0.1% polyethylenimine, followed by six washing steps with 50 mM HEPES-NaOH, pH 7.4.
Work on `N#CCCCN1CC[C@@H](CNC(=O)c2cc(N)cc3c2OCCCO3)[C@H](O)C1` [compound 3] yielded an IC50 of 38 nM. `Nc1cc2c(c(C(=O)NC[C@@H]3CCN(CC4CCCO4)C[C@H]3O)c1)OCCCO2` (some centres unmarked) [compound 4] gave an IC50 of 69.2 nM. For `Cc1cc2c(c(C(=O)NC[C@@H]3CCNC[C@H]3O)c1)OCCCO2` [compound 5], the IC50 was 64.6 nM. `N#CCCCN1CC[C@@H](CNC(=O)c2cc(N)cc3c2OCCO3)[C@H](O)C1` [compound 6] gave an IC50 of 57.5 nM. `Nc1cc(C(=O)NC[C@@H]2CCN(CCCO)C[C@H]2O)c2c(c1Cl)OCCO2` [compound 7] gave an IC50 of 17.8 nM. With `Nc1cc(C(=O)NC[C@@H]2CCNC[C@H]2O)c2c(c1Cl)OCCO2` [compound 8] the IC50 was 372 nM. For `COCCCN1CC[C@@H](CNC(=O)c2cc(N)c(Cl)c3c2OCCO3)[C@H](O)C1` [compound 9], the IC50 was 16.2 nM. With `Nc1cc(C(=O)NC[C@@H]2CCN(CC3CCCO3)C[C@H]2O)c2c(c1Cl)OCCO2` (some centres unmarked) [compound 10] the IC50 was 6.03 nM. `CNc1cc2c(c(C(=O)NC[C@@H]3CCN(CCCO)C[C@H]3O)c1)OCCO2` [compound 12] gave an IC50 of 41.7 nM. For `CNc1cc2c(c(C(=O)NC[C@@H]3CCN(CCC4OCCO4)C[C@H]3O)c1)OCCCO2` [compound 13], the IC50 was 708 nM. For `Nc1cc(C(=O)NC[C@@H]2CCN(CCC3OCCO3)C[C@H]2O)c2c(c1Cl)OCCO2` [compound 14], the IC50 was 16.6 nM. Work on `N#CCCCN1CC[C@@H](CNC(=O)c2cc(N)c(Cl)c3c2OCCO3)[C@H](O)C1` [compound 15] yielded an IC50 of 30.2 nM. With `CNc1cc2c(c(C(=O)NC[C@@H]3CCN(CCC4OCCO4)C[C@H]3O)c1)OCCO2` [compound 17] the IC50 was 25.7 nM. Molecule `Nc1cc2c(c(C(=O)NC[C@@H]3CCN(CCCC(=O)O)C[C@H]3O)c1)OCCO2` [compound 18] has an IC50 of 195 nM. With `CNc1cc2c(c(C(=O)NC[C@@H]3CCN(CC4CCCO4)C[C@H]3O)c1)OCCO2` (some centres unmarked) [compound 19] the IC50 was 17.4 nM. `CNc1cc2c(c(C(=O)NC[C@@H]3CCN(CCCC#N)C[C@H]3O)c1)OCCO2` [compound 20] gave an IC50 of 52.5 nM. Work on `CNc1cc2c(c(C(=O)NC[C@@H]3CCN(CC4CCCO4)C[C@H]3O)c1)OCCCO2` (some centres unmarked) [compound 21] yielded an IC50 of 63.1 nM. Molecule `Nc1cc2c(c(C(=O)NC[C@@H]3CCN(CC4CCCO4)C[C@H]3O)c1)OCCO2` (some centres unmarked) [compound 22] has an IC50 of 17.8 nM. `CC(C)OCCCN1CC[C@@H](CNC(=O)c2cc(N)cc3c2OCCO3)[C@H](O)C1` [compound 23] gave an IC50 of 19.1 nM. `Nc1cc(C(=O)NC[C@@H]2CCN(CCCC(=O)O)C[C@H]2O)c2c(c1Cl)OCCO2` [compound 25] was tested, and the IC50 was 138 nM. `CNc1cc2c(c(C(=O)NC[C@@H]3CCN(CCCC(=O)O)C[C@H]3O)c1)OCCCO2` [compound 27] showed an IC50 of 2630 nM. `CCCCN1CC[C@@H](CNC(=O)c2cc(NC)c(Cl)c3c2OCCO3)[C@H](O)C1` [compound 28] gave an IC50 of 15.5 nM. In the case of `COCCCCN1CC[C@@H](CNC(=O)c2cc(N)c(Cl)c3c2OCCO3)[C@H](O)C1` [compound 29], the IC50 is reported as 11 nM. For `CNc1cc(C(=O)NC[C@@H]2CCN(CCC3OCCO3)C[C@H]2O)c2c(c1Cl)OCCO2` [compound 30], the IC50 was 31.6 nM. Molecule `Nc1cc(C(=O)NC[C@@H]2CCN(CCCOC3CCCCC3)C[C@H]2O)c2c(c1Cl)OCCO2` [compound 31] has an IC50 of 3.31 nM. `COCCN1CC[C@@H](CNC(=O)c2cc(N)cc3c2OCCO3)[C@H](O)C1` [compound 32] showed an IC50 of 63.1 nM. In the case of `CNc1cc2c(c(C(=O)NC[C@@H]3CCN(CCCOC4CCCCC4)C[C@H]3O)c1)OCCCO2` [compound 34], the IC50 is reported as 31.6 nM. For `CNc1cc2c(c(C(=O)NC[C@@H]3CCN(CCOC)C[C@H]3O)c1)OCCO2` [compound 35], the IC50 was 44.7 nM. With `CNc1cc2c(c(C(=O)NC[C@@H]3CCN(CCCOC(C)C)C[C@H]3O)c1)OCCO2` [compound 36] the IC50 was 21.4 nM. In the case of `CC(C)OCCCN1CC[C@@H](CNC(=O)c2cc(N)cc3c2OCCCO3)[C@H](O)C1` [compound 37], the IC50 is reported as 36.3 nM. `CNc1cc2c(c(C(=O)NC[C@@H]3CCN(CCCC#N)C[C@H]3O)c1)OCCCO2` [compound 38] showed an IC50 of 288 nM. `Nc1cc2c(c(C(=O)NC[C@@H]3CCN(CCCC(=O)O)C[C@H]3O)c1)OCCCO2` [compound 39] showed an IC50 of 1230 nM. `CNc1cc2c(c(C(=O)NC[C@@H]3CCN(CCCOC4CCCCC4)C[C@H]3O)c1)OCCO2` [compound 40] showed an IC50 of 6.92 nM. `COCCCCN1CC[C@@H](CNC(=O)c2cc(N)cc3c2OCCO3)[C@H](O)C1` [compound 41] gave an IC50 of 15.5 nM. With `COCCN1CC[C@@H](CNC(=O)c2cc(N)c(Cl)c3c2OCCO3)[C@H](O)C1` [compound 42] the IC50 was 18.6 nM. With `CC1(CCCN2CC[C@@H](CNC(=O)c3cc(N)c(Cl)c4c3OCCO4)[C@H](O)C2)OCCO1` [compound 43] the IC50 was 13.2 nM. Work on `COCCN1CC[C@@H](CNC(=O)c2cc(N)cc3c2OCCCO3)[C@H](O)C1` [compound 45] yielded an IC50 of 135 nM. `CCCCN1CC[C@@H](CNC(=O)c2cc(N)c(Cl)c3c2OCCCO3)[C@H](O)C1` [compound 46] gave an IC50 of 8.32 nM. `COCCCN1CC[C@@H](CNC(=O)c2cc(N)c(Cl)c3c2OCCCO3)[C@H](O)C1` [compound 47] showed an IC50 of 31.6 nM. For `N#CCCCN1CC[C@@H](CNC(=O)c2cc(N)c(Cl)c3c2OCCCO3)[C@H](O)C1` [compound 48], the IC50 was 33.1 nM. `Nc1cc2c(c(C(=O)NC[C@@H]3CCN(CCCOC4CCCCC4)C[C@H]3O)c1)OCCCO2` [compound 49] was tested, and the IC50 was 25.7 nM. Molecule `Nc1cc(C(=O)NCC2CCN(CC3CCCO3)C[C@H]2O)c2c(c1Cl)OCCCO2` (some centres unmarked) [compound 51] has an IC50 of 14.5 nM. Molecule `Nc1cc(C(=O)NC[C@@H]2CCN(CCC3OCCO3)C[C@H]2O)c2c(c1Cl)OCCCO2` [compound 52] has an IC50 of 14.8 nM. Work on `Nc1cc(C(=O)NC[C@@H]2CCN(CCCCO)C[C@H]2O)c2c(c1Cl)OCCO2` [compound 53] yielded an IC50 of 20 nM. `CNc1cc2c(c(C(=O)NC[C@@H]3CCN(CCCCOC)C[C@H]3O)c1)OCCO2` [compound 54] showed an IC50 of 14.8 nM. `Nc1cc2c(c(C(=O)NC[C@@H]3CCN(Cc4ccc(F)cc4)C[C@H]3O)c1)OCCCO2` [compound 55] showed an IC50 of 64.6 nM. In the case of `CNc1cc2c(c(C(=O)NC[C@@H]3CCN(Cc4ccc(F)cc4)C[C@H]3O)c1)OCCO2` [compound 56], the IC50 is reported as 17.8 nM. `COCCCCN1CC[C@@H](CNC(=O)c2cc(N)c(Cl)c3c2OCCCO3)[C@H](O)C1` [compound 58] was tested, and the IC50 was 14.1 nM. With `CC1(CCCN2CC[C@@H](CNC(=O)c3cc(N)cc4c3OCCCO4)[C@H](O)C2)OCCO1` [compound 59] the IC50 was 51.3 nM. In the case of `CC(=O)CCCN1CC[C@@H](CNC(=O)c2cc(N)cc3c2OCCCO3)[C@H](O)C1` [compound 60], the IC50 is reported as 81.3 nM. `CNc1cc2c(c(C(=O)NC[C@@H]3CCN(CCCC(C)=O)C[C@H]3O)c1)OCCO2` [compound 61] gave an IC50 of 14.5 nM. `CNc1cc2c(c(C(=O)NC[C@@H]3CCN(CCCCOC)C[C@H]3O)c1)OCCCO2` [compound 62] was tested, and the IC50 was 81.3 nM. `Nc1cc(C(=O)NC[C@@H]2CCN(Cc3ccc(F)cc3)C[C@H]2O)c2c(c1Cl)OCCO2` [compound 64] was tested, and the IC50 was 15.5 nM. `Nc1cc(C(=O)NC[C@@H]2CCN(CCCOC3CCCCC3)C[C@H]2O)c2c(c1Cl)OCCCO2` [compound 65] showed an IC50 of 3.55 nM. With `Nc1cc(C(=O)NC[C@@H]2CCN(CCCC(=O)O)C[C@H]2O)c2c(c1Cl)OCCCO2` [compound 66] the IC50 was 282 nM. In the case of `CNc1cc2c(c(C(=O)NC[C@@H]3CCN(CCOCCO)C[C@H]3O)c1)OCCCO2` [compound 67], the IC50 is reported as 479 nM. `Nc1cc2c(c(C(=O)NC[C@@H]3CCN(CCOCCO)C[C@H]3O)c1)OCCCO2` [compound 69] gave an IC50 of 490 nM. Work on `Nc1cc(C(=O)NC[C@@H]2CCN(CCOCCO)C[C@H]2O)c2c(c1Cl)OCCO2` [compound 70] yielded an IC50 of 89.1 nM. Work on `Nc1cc(C(=O)NC[C@@H]2CCN(CCOCCO)C[C@H]2O)c2c(c1Cl)OCCCO2` [compound 72] yielded an IC50 of 83.2 nM. `Nc1cc2c(c(C(=O)NC[C@@H]3CCN(CCCCO)C[C@H]3O)c1)OCCCO2` [compound 73] showed an IC50 of 55 nM. `CNc1cc2c(c(C(=O)NC[C@@H]3CCN(Cc4ccc(F)cc4)C[C@H]3O)c1)OCCCO2` [compound 74] gave an IC50 of 214 nM. For `CS(=O)(=O)NCCN1CC[C@@H](CNC(=O)c2cc(N)c(Cl)c3c2OCCCO3)[C@H](O)C1` [compound 75], the IC50 was 30.9 nM. Work on `CC1(CCCN2CC[C@@H](CNC(=O)c3cc(N)c(Cl)c4c3OCCCO4)[C@H](O)C2)OCCO1` [compound 76] yielded an IC50 of 22.9 nM. `CNc1cc2c(c(C(=O)NC[C@@H]3CCN(CCCC(C)=O)C[C@H]3O)c1)OCCCO2` [compound 77] was tested, and the IC50 was 69.2 nM. Work on `Nc1cc(C(=O)NC[C@@H]2CCN(Cc3ccc(F)cc3)C[C@H]2O)c2c(c1Cl)OCCCO2` [compound 78] yielded an IC50 of 9.33 nM. Molecule `COCCN1CC[C@@H](CNC(=O)c2cc(N)c(Cl)c3c2OCCCO3)[C@H](O)C1` [compound 79] has an IC50 of 39.8 nM. Molecule `CC(=O)CCCN1CC[C@@H](CNC(=O)c2cc(N)c(Cl)c3c2OCCCO3)[C@H](O)C1` [compound 80] has an IC50 of 7.59 nM. `CNCCCN1CC[C@@H](CNC(=O)c2cc(NC)cc3c2OCCCO3)[C@H](O)C1` [compound 81] gave an IC50 of 1150 nM. Work on `N#CCN1CC[C@@H](CNC(=O)c2cc(N)c(Cl)c3c2OCCCO3)[C@H](O)C1` [compound 82] yielded an IC50 of 6170 nM. In the case of `CC(=O)CCCN1CC[C@@H](CNC(=O)c2cc(N)cc3c2OCCO3)[C@H](O)C1` [compound 83], the IC50 is reported as 14.8 nM. Work on `CNc1cc2c(c(C(=O)NC[C@@H]3CCN(CCOCCO)C[C@H]3O)c1)OCCO2` [compound 84] yielded an IC50 of 93.3 nM.

Source: US7638535B2, “4-(aminomethyl)-piperidine benzamides as 5HT4-antagonists” (Janssen Pharmaceutica N.V., priority 2003, dated 2009)
